Values quoted from earlier work as cited in patent publication US10874768B2, “Drug eluting medical device” (priority 2017, dated 2020).

Conditions: human, 3 patients, 180 mg/m^2 infusion over 3 hours

For `CC(=O)O[C@H]1C(=O)[C@@]2(C)[C@H]([C@H](OC(=O)c3ccccc3)[C@]3(O)C[C@H](OC(=O)[C@H](O)[C@@H](NC(=O)c4ccccc4)c4ccccc4)C(C)=C1C3(C)C)[C@]1(OC(C)=O)CO[C@@H]1C[C@@H]2O` [paclitaxel], the Cmax is given as 5.23 µM.
